{"source": "patent US20120101163A1", "about": "“COMPOSITION FOR INHIBITING CANCER METASTASIS” (TAIPEI MEDICAL UNIVERSITY, priority 2010, published 2012)", "key": {"HT 1080 cells [1]": {"system": "HT 1080 cells", "test": "Cancer cell survival rate test (MTT)", "format": "cell-based, Human", "details": "different concentrations, 24 hours", "experimental": "3. Cancer Cell Survival Rate Test (Lambert et al., 1997; Yang et al., 2006)\nA medium in a culturing plate containing cells grown covering the whole bottom of the culturing plate, was removed. The cells were washed with 10 ml of PBS, and then suspended and mixed well with 10 ml of medium (a part of the cells need to be suspended with Trypsin-EDTA buffer). The numbers of the cells were calculated by a hemocytometer, and the cells were diluted to an appropriate cell concentration and added into the wells of a 24 well culturing plate by an amount of 500 μl/well. The 24 well culturing plates were placed in an incubator at 37° C. in a humidified atmosphere containing 5% CO2. After the cells were attached onto the bottom of the wells, the medium in each well was removed, and fresh mediums with different concentrations of a test drug were added into wells, respectively (if the cells were suspension cells, the fresh medium may be added into the wells, directly). Then, the 24 well culturing plates were placed in an incubator at 37° C. in a humidified atmosphere containing 5% CO2 for 24 hours. After that, an upper medium in each well was removed. The cells were washed with a PBS buffer twice, and then an MTT solution which was prepared with a medium was added to each well. […] After that, an ELISA reader was used to determine the absorbance for each well at 600 nm."}, "[2]": {"system": "matrix metalloproteinase-2", "test": "Gelatin gel zymography of PMA-induced HT 1080 cells, MMP-2 activity", "format": "cell-based, Human", "experimental": "4. Gelatin Gel Zymography (Shim et al., 2003; Park et al., 2005; Hwang et al., 2006)\nHT 1080 cells with appropriate cell numbers were cultured in 60 mm culturing plates for 12 hours, respectively. After the cells were attached onto the bottom of the plate and formed a monolayer, the medium in the plate was removed. Fresh serum free mediums with different concentrations of a test sample were added to the plates, respectively, and 100 nM PMA was added to each plate to induce the cells to express great quantities of matrix metalloproteinase-2 and matrix metalloproteinase-9, and the plates were placed in a temperature of 37° C. for 24 hours. After centrifugation, each cultured supernatant were saved and mixed with SDS-sample buffer under the same protein contents which were then injected into a 10% SDS-polyacrylamide gel (containing 1 mg/ml gelatin) and then electrophoresed. After the electrophoresis was completed, the gel was taken out and washed with 20 mM Tris-HCl containing 25% isopropanol three times; 10 minutes per time. Then the gel was equilibrated with 20 mM Tris-HCl for 30 minutes, and finally an incubate buffer (5 mM CaCl2 and 1 mM ZnCl2) was added to the gel and reacted with the gel overnight. Then the gel was stained with coomassie blue, and positions having matrix metalloproteinase activity of the gel presented a white color."}, "B16-F10 cell line": {"system": "B16-F10 cell line", "test": "Tumor metastasis in an animal model (lung metastasis induced by B16-F10)", "format": "in vivo, C57BL/6 mice", "details": "mice, 50 mg/kg/day, 21 days", "experimental": "12. Tumor Metastasis in an Animal Model (Itoh et al., 2005; Lee et al., 2005; Ouyang et al., 2005; Zhang et al., 2005)\nExperimental animal: C57BL/6, gray-brown fur\nC57BL/6 mice were injected with 2×10^5 cells/0.1 ml of a B16-F10 cell line by a tail intravenous injection. Then, on the next day the mice were injected with a physiological saline solution or 50 mg/kg drug, daily, for 3 weeks. The mice were sacrificed and their lungs were removed at the third week. The lungs were washed with a PBS buffer and fixed with Bouin's solution."}, "[3]": {"system": "matrix metalloproteinase-2", "test": "Western blot analysis, MMP-2 protein expression in HT 1080 cells", "format": "cell-based, Human", "experimental": "HT 1080 cells with appropriate cell numbers were cultured in 60 mm culturing plates for 12 hours, respectively. After the cells were attached onto the bottom of the plate and formed a monolayer, the medium in the plate was removed. Fresh serum-free mediums with different concentrations of a test drug were added to the plates, respectively, and 100 nM PMA was added to each plate to induce the cells to express great quantities of matrix metalloproteinase-2 and matrix metalloproteinase-9, and the plates were placed in a temperature of 37° C. for 24 hours. A quantitatively cultured supernatant in each plate was centrifuged or protein was extracted from cells in each plate to be quantitated, and then an SDS-sample buffer containing 2-ME was added therein to form a mixture. The mixture was injected into a 10% SDS-polyacrylamide gel […] and then electrophoresed. After electrophoresis was completed, the proteins in the gel were transferred to a PVDF membrane. The PVDF membrane was equilibrated with gelatin-NET at room temperature for 30 minutes. […]"}, "HT 1080 cells [4]": {"system": "HT 1080 cells", "test": "Invasion assay (Matrigel transwell)", "format": "cell-based, Human", "experimental": "10. Invasion Assay (Lee et al., 2005; Huang et al., 2005; Park et al., 2005)\nHT 1080 cells were used to prepare a cell suspension with an appropriate concentration by a fresh serum free medium and than placed in each upper chamber of each transwell (BD Matrigel™ Invasion Chamber 24-Well Plate 8.0 Micron). Fresh serum containing mediums with different concentrations of a test drug were added to the lower chambers of the transwells, respectively. The transwells were placed in an incubator containing 5% CO2 at 37° C. for 18 hours. After that, the medium in the upper chamber was removed and cells on the upper surface of the membrane of the transwell were wiped by a cotton swab. Finally, the cells were fixed and stained. The calculation for the invasion rate of the cells was:\nNe: Numbers of cells crossing the membrane Nc: Numbers of total cells"}, "[5]": {"details": "about 0.1-2 mM, stated as embodiment, 'and/or' MMP-9"}}, "note": "pIC50: −log10 of the molar value."}
{"smiles": "NC(CCC(=O)NO)C(=O)O", "note": "[DH, L-Glutamic acid γ-hydroxamate]", "values": [{"measurement": "cytotoxicity to HT 1080 cells", "setting": "HT 1080 cells [1]", "result": "no significant cytotoxicity"}, {"measurement": "protein activity of matrix metalloproteinase-2 secreted out of and left in HT 1080 cells", "setting": "[2]; 0.4, 0.8, 1.2, and 1.6, 24 hours", "result": "also decreased"}, {"measurement": "inhibition rate to the activity of matrix metalloproteinase-2", "setting": "[2]; HT 1080 cells treated 24 hours", "result": "greater than 50%"}, {"measurement": "matrix metalloproteinase-2 inhibiting activity", "setting": "[2]; HT 1080 cells, 0.4, 0.8, 1.2 and 1.6 mM, 24 hours", "result": "increased while the concentration thereof was increased"}, {"measurement": "inhibition rate to the protein activity of metalloproteinase-2 of a cancer cell", "setting": "[2]; [5]", "result": "40-70%"}, {"measurement": "lung metastasis and amount of metastasized pulmonary nodules", "setting": "B16-F10 cell line", "result": "significantly decreased"}, {"measurement": "lung weight", "setting": "B16-F10 cell line", "result": "recovered to a level similar to that of the control group"}, {"measurement": "pathological symptoms (fur picking, weight loss, hind limb debility) due to cancer metastasis, compared to blank group", "setting": "B16-F10 cell line", "result": "decreased"}, {"measurement": "survival till the end of the experiment", "setting": "B16-F10 cell line; blank group 2 of 6 survived", "result": "six mice all survived"}, {"measurement": "protein expression amount of matrix metalloproteinase-2 secreted out of and left in HT 1080 cells", "setting": "[3]; 0.4, 0.8, 1.2, and 1.6, 24 hours, Western blotting", "result": "all decreased"}, {"measurement": "inhibition rate to the protein expression amount of metalloproteinase-2 of a cancer cell", "setting": "[3]; [5]", "result": "40-90%"}, {"measurement": "pIC50", "setting": "HT 1080 cells [4]; Homo sapiens, HT-1080, 0.8, 1.6 and 2.4 mM, 18 hours, read-out: IC50 HT 1080 crossing membrane to the lower chamber (invasion)", "result": 2.90}, {"measurement": "inhibition rate to cancer cell invasion", "setting": "HT 1080 cells [4]; about 0.1-3 mM, stated as embodiment", "result": "40-85%"}]}
